The record followed here is ChEMBL document CHEMBL5223084, “Discovery and Preclinical Characterization of Usmarapride (SUVN-D4010): A Potent, Selective 5-HT4 Receptor Partial Agonist for the Treatment of Cognitive Deficits Associated with Alzheimer's Disease” (J Med Chem, 2021).

Series [1] is described as follows: in vitro. The conditions noted are these: human.
Series [2] is described as follows: in vitro. The conditions noted are these: rat.
Series [3] is described as follows: Oral bioavailability in Beagle dog at 1 mg/kg. It counts as ADME, organism-based, Canis lupus familiaris. The conditions noted are these: in vivo.
Series [4] is described as follows: Clearance in Beagle dog at 1 mg/kg, iv. Format: ADME, organism-based, Canis lupus familiaris. The conditions noted are these: in vivo.
Series [5] is described as follows: Volume of distribution in Beagle dog at 1 mg/kg, iv. The following applies: in vivo. Format: ADME, organism-based, Canis lupus familiaris.
A short description of series [6]: Solubility of the compound in buffer at pH 2 to 7 at 37 degC. Format: physicochemical.
The conditions of series [7]: rat, in vivo, po, 3 mg/kg, 24 h.
Series [8] can be described thus: Tmax in Beagle dog at 1 mg/kg, po. It counts as ADME, organism-based, Canis lupus familiaris. The following applies: in vivo.
The nature of series [9]: Acid dissociation constant, pKa of the compound. It counts as physicochemical.
A short description of series [10]: Solubility of the compound in water. It counts as physicochemical.
Series [11] can be described thus: Apparent permeability of the compound in human Caco-2 cells at 10 uM. Format: ADME, cell-based.
Series [12] is described as follows: AUC (0 to 24 hrs) in Beagle dog at 1 mg/kg, po. The conditions noted are these: in vivo. It counts as ADME, organism-based, Canis lupus familiaris. More on the design: dose 1 mg/kg, route po.
Series [13] in a line: Terminal half life in Beagle dog at 1 mg/kg, iv. It counts as ADME, organism-based, Canis lupus familiaris. The following applies: in vivo, read-out: beta t1/2 (converted).
For series [14] the following is noted: rat, in vivo, po, 3 mg/kg, 24 h. This is another data set of the same source.
Series [15] can be described thus: in vivo. The following applies: Wistar, rat, po, 3 mg/kg.
Series [16] can be described thus: in vivo. The following applies: Wistar, rat, po, 3 mg/kg. This is another data set of the same source.
Series [17] can be described thus: in vivo. The conditions noted are these: Wistar, rat, po, 3 mg/kg. This is another data set of the same source.
Series [18] is described as follows: in vivo. The following applies: Wistar, rat, iv, 1 mg/kg.
Series [19] in a line: in vivo. The conditions noted are these: Wistar, rat, po, 3 mg/kg. The source holds these as a separate data set.
For series [20] the following is noted: rat, in vivo, po, 3 mg/kg, 24 h. The source holds these as a separate data set.
Series [21] can be described thus: in vivo. The conditions noted are these: Wistar, rat, brain and plasma, po, 10 mg/kg.

Consider `CC(C)n1nc(-c2noc(C3CCN(CC4CCOCC4)CC3)n2)c2ccccc21`, for which the metabolised at 0.5 h in [1] (microsomes) is 40.4%; in [2] (microsomes), 64.1%.

On to `COCCCN1CCC(c2nnc(-c3nn(C(C)C)c4ccccc34)o2)CC1.O=C(O)C(=O)O`, for which the metabolised at 0.5 h in series [1] (liver microsomes) is 26.2%; in series [2] (liver microsomes), 25.1%. For the same compound, the bioavailability in [3] was determined as 72%. In series [4], this compound returned a clearance of 18 mL/min/kg. The Vd in series [5] was found to be 5.1 L/kg. For the same compound, the solubility in series [6] came to 20 mg/mL; in series [10], 17.1 mg/mL. In series [7], this compound had a Vdss of 8 L/kg. In addition, in series [8], the Tmax is 30 min. Further, the pKa in series [9] stood at 8.4. Besides, the Papp at 10 µM in series [11] worked out at 38 ×10⁻⁶ cm/s. Moreover, in series [12], the AUC(0-t) amounted to 711 ng·h/mL. The half-life in series [13] was 360 min.

`CC(C)n1nc(-c2nnc(C3CCN(CC4CC4)CC3)o2)c2ccccc21`: the AUC in series [14] was 394 ng·h/mL. For the same compound, the metabolised at 0.5 h in series [1] (liver microsomes) was 43.6%; in series [2] (liver microsomes), 83.8%. In series [7], this compound gave a Vdss of 8 L/kg. For the same compound, the half-life at 24 h in [15] is 102 min.

On to `CC(C)n1nc(-c2nnc(C3CCN(CC4CCC4)CC3)o2)c2ccccc21`, for which the metabolised at 0.5 h in series [1] (liver microsomes) stood at 62.5%; in series [2] (liver microsomes) it was 55.1%. This compound had a bioavailability at 24 h in [16] of 2.6%. In [17], this compound had an area under the curve (AUC) at 24 h of 16 ng·h/mL. In addition, the clearance at 24 h in series [18] came to 81 mL/min/kg. Further, in series [7], the Vdss is 4.9 L/kg. In addition, the half-life at 24 h in series [15] was 138 min. Further, the highest level in series [19] (Cmax at 24 h) was 14 ng/mL.

For the compound `CC(C)N1CCC(c2nnc(-c3nn(C(C)C)c4ccccc34)o2)CC1`, in series [14], the area under the curve (AUC) is 133 ng·h/mL. Moreover, the metabolised at 0.5 h in series [1] (liver microsomes) was determined as 15.3%; in series [2] (liver microsomes), 35.7%. In series [20], this compound yielded an F of 9%. The Vdss in series [7] is 10 L/kg. In series [21], this compound came in with a concentration ratio (Kp) at 1 h of 3.6. Moreover, in series [15], the half-life at 24 h was 114 min. Besides, in series [19], the highest level (Cmax at 24 h) was 91 ng/mL.

In the case of `CC(C)n1c(=O)c(C(=O)NCCCN2CCCCC2)c(O)c2ccsc21` [PRX-03140], the bioavailability at 24 h in series [16] came to 2%. The AUC at 24 h in series [17] came to 22 ng·h/mL. In addition, in [18], the clearance at 24 h is 62 mL/min/kg. The same compound gave a Vdss in series [7] of 7.6 L/kg. The compound also returned a Kp at 1 h in series [21] of 1.6. Besides, the half-life at 24 h in [15] was 90 min. This compound also came in with a peak concentration (Cmax) at 24 h in series [19] of 17 ng/mL.
